Assay results as given in ChEMBL document CHEMBL5715954, “Silencing c-Myc translation as a therapeutic strategy through targeting PI3Kδ and CK1ε in hematological malignancies” (Blood, 2017).

Assays:
Set-up in all cases: scale not given: the % may be the effect or the level left
[1] = target: Tyrosine-protein kinase JAK2 (Homo sapiens) (UniProt O60674); assay: Inhibition of human JAK2 assessed as enzyme activity at 1 uM using poly[Glu:Tyr] (4:1) as substrate preincubated for 20 mins followed by [gamma-33P]-ATP addition and measured after 120 mins by radiometric Hot-SpotSM Kinase assay relative to control
[2] = target: Mitogen-activated protein kinase kinase kinase kinase 5 (Homo sapiens) (UniProt Q9Y4K4); assay: Inhibition of human KHS assessed as enzyme activity at 1 uM using myelin basic protein as substrate preincubated for 20 mins followed by [gamma-33P]-ATP addition and measured after 120 mins by radiometric Hot-SpotSM Kinase assay relative to control
[3] = target: Tyrosine-protein kinase Lyn (Homo sapiens) (UniProt P07948); assay: Inhibition of human LYN assessed as enzyme activity at 1 uM using poly[Glu:Tyr] (4:1) as substrate preincubated for 20 mins followed by [gamma-33P]-ATP addition and measured after 120 mins by radiometric Hot-SpotSM Kinase assay relative to control
[4] = target: Cyclin-dependent kinase 4/cyclin D1 (Homo sapiens) (UniProt P11802+P24385); assay: Inhibition of human CDK4/cyclin D1 assessed as enzyme activity at 1 uM using RB Protein as substrate preincubated for 20 mins followed by [gamma-33P]-ATP addition and measured after 120 mins by radiometric Hot-SpotSM Kinase assay relative to control; format: protein-complex assay
[5] = target: Serine/threonine-protein kinase MARK2 (Homo sapiens) (UniProt Q7KZI7); assay: Inhibition of human PAR-1Ba assessed as enzyme activity at 1 uM using KKKVSRSGLYRSPSMPENLNRPR as substrate preincubated for 20 mins followed by [gamma-33P]-ATP addition and measured after 120 mins by radiometric Hot-SpotSM Kinase assay relative to control
[6] = target: T1, Dual specificity mitogen-activated protein kinase kinase 7 (Homo sapiens) (UniProt O14733); assay: Inhibition of human MKK7 assessed as enzyme activity at 1 uM using JNK (K55M) as substrate preincubated for 20 mins followed by [gamma-33P]-ATP addition and measured after 120 mins by radiometric Hot-SpotSM Kinase assay relative to control
T1 sequence (whole entry): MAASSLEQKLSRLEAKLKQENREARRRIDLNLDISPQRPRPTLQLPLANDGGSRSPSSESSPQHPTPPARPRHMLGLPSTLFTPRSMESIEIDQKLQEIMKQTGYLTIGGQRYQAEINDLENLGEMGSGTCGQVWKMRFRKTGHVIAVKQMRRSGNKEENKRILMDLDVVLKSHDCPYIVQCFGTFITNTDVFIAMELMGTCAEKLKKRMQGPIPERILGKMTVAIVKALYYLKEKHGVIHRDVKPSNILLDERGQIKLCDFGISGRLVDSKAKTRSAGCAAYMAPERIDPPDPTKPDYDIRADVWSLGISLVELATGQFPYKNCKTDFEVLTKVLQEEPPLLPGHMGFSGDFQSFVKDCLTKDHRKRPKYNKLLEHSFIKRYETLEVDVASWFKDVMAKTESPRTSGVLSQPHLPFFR

[7] = target: Ephrin type-A receptor 7 (Homo sapiens) (UniProt Q15375); assay: Inhibition of human EPHA7 assessed as enzyme activity at 1 uM using poly[Glu:Tyr] (4:1) as substrate preincubated for 20 mins followed by [gamma-33P]-ATP addition and measured after 120 mins by radiometric Hot-SpotSM Kinase assay relative to control
[8] = target: T2, Serine/threonine-protein kinase Nek2 (Homo sapiens) (UniProt P51955); assay: Inhibition of human NEK2 assessed as enzyme activity at 1 uM using myelin basic protein as substrate preincubated for 20 mins followed by [gamma-33P]-ATP addition and measured after 120 mins by radiometric Hot-SpotSM Kinase assay relative to control
T2 sequence (whole entry): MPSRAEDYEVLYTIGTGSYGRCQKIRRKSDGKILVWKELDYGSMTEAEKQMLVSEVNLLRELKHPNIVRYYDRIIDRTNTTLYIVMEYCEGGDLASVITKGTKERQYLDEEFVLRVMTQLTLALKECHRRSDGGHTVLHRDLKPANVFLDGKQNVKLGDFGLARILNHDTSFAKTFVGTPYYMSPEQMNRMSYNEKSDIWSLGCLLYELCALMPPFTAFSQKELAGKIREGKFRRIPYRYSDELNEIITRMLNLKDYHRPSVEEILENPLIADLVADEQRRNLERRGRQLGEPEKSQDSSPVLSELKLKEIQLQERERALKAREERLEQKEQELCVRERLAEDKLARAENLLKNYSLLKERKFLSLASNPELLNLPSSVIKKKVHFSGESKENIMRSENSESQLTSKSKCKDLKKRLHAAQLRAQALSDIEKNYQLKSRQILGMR

[9] = target: T3, Aurora kinase A (Homo sapiens) (UniProt O14965); assay: Inhibition of human Aurora A assessed as enzyme activity at 1 uM using H-LRRASLG as substrate preincubated for 20 mins followed by [gamma-33P]-ATP addition and measured after 120 mins by radiometric Hot-SpotSM Kinase assay relative to control
T3 sequence (whole entry): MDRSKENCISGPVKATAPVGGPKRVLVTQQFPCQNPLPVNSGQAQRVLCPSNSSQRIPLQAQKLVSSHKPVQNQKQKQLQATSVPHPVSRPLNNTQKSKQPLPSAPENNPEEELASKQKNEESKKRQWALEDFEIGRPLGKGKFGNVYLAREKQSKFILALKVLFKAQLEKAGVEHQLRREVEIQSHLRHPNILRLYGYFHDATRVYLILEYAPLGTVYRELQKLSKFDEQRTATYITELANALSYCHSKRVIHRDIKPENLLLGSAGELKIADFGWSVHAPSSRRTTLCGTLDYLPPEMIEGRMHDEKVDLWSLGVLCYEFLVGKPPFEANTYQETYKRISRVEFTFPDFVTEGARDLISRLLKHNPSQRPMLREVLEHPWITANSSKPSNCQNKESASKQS

[10] = target: CDK3/Cyclin E (Homo sapiens) (UniProt P24864+Q00526); assay: Inhibition of human CDK3/cyclin E assessed as enzyme activity at 1 uM using RB Protein as substrate preincubated for 20 mins followed by [gamma-33P]-ATP addition and measured after 120 mins by radiometric Hot-SpotSM Kinase assay relative to control; format: protein-complex assay
[11] = target: CDK2/Cyclin A1 (Homo sapiens) (UniProt P24941+P78396); assay: Inhibition of human CDK2/Cyclin A1 assessed as enzyme activity at 1 uM using RB Protein as substrate preincubated for 20 mins followed by [gamma-33P]-ATP addition and measured after 120 mins by radiometric Hot-SpotSM Kinase assay relative to control; format: protein-complex assay
[12] = target: Calcium/calmodulin-dependent protein kinase kinase 1 (Homo sapiens) (UniProt Q8N5S9); assay: Inhibition of human CAMKK1 assessed as enzyme activity at 1 uM using myelin basic protein as substrate preincubated for 20 mins followed by [gamma-33P]-ATP addition and measured after 120 mins by radiometric Hot-SpotSM Kinase assay relative to control
Sequence of Calcium/calmodulin-dependent protein kinase kinase 1 (Homo sapiens) (Q8N5S9 whole entry, looked up): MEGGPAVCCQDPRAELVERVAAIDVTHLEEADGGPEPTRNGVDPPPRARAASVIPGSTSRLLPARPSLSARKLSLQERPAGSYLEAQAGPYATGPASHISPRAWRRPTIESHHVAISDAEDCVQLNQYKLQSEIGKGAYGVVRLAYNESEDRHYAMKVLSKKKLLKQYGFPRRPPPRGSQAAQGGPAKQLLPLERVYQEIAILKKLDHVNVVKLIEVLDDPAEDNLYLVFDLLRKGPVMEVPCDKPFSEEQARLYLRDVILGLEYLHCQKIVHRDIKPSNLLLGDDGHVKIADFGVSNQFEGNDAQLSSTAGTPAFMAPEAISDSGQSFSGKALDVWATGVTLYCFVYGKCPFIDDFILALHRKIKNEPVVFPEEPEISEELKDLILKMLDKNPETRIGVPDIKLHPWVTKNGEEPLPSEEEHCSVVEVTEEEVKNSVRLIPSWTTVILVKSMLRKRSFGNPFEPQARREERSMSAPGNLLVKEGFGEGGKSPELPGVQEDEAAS

Sequence of Ephrin type-A receptor 7 (Homo sapiens) (Q15375 28-998 limits assumed): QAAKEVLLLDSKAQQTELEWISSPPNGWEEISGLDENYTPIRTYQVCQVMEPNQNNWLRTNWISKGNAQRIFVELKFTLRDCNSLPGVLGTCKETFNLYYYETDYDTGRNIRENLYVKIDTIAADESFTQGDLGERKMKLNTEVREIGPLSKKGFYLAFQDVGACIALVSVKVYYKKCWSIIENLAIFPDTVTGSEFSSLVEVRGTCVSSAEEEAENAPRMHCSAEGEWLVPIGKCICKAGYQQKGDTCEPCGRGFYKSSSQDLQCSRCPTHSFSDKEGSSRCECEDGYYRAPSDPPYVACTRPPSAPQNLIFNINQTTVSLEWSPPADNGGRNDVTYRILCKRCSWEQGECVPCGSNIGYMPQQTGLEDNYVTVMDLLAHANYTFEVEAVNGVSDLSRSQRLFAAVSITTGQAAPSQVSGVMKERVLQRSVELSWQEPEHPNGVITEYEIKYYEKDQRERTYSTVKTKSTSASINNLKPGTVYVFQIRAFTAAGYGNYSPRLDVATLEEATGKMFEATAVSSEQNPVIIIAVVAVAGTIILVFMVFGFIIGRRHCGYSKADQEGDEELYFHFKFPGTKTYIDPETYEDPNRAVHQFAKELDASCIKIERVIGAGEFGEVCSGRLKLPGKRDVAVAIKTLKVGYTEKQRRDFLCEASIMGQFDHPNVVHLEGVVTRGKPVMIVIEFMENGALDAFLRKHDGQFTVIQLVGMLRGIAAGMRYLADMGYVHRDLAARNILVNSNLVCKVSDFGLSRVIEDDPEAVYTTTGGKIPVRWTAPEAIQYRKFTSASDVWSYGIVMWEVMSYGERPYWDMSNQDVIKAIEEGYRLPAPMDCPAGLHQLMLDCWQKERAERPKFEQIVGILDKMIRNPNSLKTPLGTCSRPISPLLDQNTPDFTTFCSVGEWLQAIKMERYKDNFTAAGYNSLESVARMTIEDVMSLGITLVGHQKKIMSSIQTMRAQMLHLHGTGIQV
Sequence of Mitogen-activated protein kinase kinase kinase kinase 5 (Homo sapiens) (Q9Y4K4 whole entry, looked up): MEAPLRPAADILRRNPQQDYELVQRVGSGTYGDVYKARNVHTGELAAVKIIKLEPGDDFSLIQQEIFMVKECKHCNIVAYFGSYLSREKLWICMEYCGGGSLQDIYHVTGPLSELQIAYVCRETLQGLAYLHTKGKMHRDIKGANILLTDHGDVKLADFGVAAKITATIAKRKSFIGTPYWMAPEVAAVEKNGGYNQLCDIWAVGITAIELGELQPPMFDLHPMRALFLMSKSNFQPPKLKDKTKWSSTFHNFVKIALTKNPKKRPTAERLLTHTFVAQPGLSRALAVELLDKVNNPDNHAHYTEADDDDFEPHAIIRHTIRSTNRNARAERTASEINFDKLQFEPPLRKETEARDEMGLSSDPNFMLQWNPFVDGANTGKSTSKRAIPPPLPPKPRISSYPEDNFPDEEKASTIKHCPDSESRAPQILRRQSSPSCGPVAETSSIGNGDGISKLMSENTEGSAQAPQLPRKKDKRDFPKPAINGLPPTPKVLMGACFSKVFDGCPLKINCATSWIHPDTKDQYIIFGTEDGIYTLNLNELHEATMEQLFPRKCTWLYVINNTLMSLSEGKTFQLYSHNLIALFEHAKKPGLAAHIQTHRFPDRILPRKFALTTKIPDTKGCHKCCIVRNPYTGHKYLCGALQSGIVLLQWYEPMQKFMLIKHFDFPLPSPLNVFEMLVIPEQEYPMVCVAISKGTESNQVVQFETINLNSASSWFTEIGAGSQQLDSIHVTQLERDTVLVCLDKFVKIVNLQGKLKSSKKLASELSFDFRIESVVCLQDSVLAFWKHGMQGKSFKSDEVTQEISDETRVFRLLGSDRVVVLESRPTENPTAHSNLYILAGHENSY
Sequence of Tyrosine-protein kinase Lyn (Homo sapiens) (P07948 2-512 limits assumed): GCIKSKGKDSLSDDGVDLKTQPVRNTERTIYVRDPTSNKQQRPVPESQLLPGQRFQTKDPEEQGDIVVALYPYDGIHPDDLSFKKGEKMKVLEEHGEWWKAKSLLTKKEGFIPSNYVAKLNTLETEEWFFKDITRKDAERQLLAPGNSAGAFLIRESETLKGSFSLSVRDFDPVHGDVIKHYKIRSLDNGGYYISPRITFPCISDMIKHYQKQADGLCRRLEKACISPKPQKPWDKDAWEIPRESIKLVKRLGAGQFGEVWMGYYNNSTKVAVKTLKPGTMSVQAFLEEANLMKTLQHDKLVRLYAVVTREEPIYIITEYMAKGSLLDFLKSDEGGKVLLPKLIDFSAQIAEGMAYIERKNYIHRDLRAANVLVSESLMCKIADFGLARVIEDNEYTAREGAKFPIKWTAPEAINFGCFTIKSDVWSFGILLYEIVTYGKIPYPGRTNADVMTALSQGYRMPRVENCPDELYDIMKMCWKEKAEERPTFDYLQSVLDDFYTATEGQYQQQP
Sequence of CDK3/Cyclin E (Homo sapiens) (P24864 whole entry, looked up): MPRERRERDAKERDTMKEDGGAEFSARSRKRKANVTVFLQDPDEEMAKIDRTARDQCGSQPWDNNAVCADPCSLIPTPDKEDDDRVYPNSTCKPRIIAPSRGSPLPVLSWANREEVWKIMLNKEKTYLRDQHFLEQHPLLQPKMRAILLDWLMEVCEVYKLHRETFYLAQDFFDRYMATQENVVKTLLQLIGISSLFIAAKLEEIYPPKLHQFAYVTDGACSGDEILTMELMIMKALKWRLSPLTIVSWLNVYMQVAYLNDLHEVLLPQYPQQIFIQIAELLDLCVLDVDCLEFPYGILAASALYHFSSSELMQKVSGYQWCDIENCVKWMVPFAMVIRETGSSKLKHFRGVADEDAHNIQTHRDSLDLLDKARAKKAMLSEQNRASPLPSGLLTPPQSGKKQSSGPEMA
Sequence of CDK3/Cyclin E (Homo sapiens) (Q00526 whole entry, looked up): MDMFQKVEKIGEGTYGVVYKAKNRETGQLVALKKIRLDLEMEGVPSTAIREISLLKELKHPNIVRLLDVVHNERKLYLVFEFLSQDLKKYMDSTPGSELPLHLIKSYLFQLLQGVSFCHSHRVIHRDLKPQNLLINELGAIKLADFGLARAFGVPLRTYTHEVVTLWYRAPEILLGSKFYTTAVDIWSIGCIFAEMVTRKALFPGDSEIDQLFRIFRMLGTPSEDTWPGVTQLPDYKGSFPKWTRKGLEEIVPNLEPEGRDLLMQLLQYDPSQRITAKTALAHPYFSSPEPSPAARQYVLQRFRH
Sequence of Serine/threonine-protein kinase MARK2 (Homo sapiens) (Q7KZI7 whole entry): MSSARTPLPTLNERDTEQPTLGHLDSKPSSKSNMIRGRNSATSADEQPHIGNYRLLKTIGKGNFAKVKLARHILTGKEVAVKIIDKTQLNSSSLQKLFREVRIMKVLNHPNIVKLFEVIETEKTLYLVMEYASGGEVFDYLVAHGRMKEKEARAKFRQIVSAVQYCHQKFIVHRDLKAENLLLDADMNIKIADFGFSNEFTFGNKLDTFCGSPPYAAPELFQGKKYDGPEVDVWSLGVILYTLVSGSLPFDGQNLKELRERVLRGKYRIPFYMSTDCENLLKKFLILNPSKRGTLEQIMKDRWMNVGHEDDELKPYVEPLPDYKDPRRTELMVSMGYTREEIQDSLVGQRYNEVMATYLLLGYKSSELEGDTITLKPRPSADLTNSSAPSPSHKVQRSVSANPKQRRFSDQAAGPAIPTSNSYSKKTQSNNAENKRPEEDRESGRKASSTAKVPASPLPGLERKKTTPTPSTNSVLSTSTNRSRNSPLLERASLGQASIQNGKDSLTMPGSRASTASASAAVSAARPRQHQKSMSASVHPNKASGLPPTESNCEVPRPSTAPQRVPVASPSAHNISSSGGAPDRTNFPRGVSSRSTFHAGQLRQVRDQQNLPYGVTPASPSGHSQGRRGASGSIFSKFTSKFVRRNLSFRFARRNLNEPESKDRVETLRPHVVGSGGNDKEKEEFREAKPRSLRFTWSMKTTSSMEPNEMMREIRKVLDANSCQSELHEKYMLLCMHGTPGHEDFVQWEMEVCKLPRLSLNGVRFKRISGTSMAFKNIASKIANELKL

| Compound | Activity [1] [%] | Activity [2] [%] | Activity [3] [%] | Activity [4] [%] | Activity [5] [%] | Activity [6] [%] | Activity [7] [%] | Activity [8] [%] | Activity [9] [%] | Activity [10] [%] | Activity [11] [%] | Activity [12] [%] |
| --- | --- | --- | --- | --- | --- | --- | --- | --- | --- | --- | --- | --- |
| C[C@H](Nc1ncnc2nc[nH]c12)c1cc2cccc(Cl)c2c(=O)n1-c1ccccc1 | 100 | 101 | 100 | 110 | 95.8 | 96 | 93.4 | 110 | 96.8 | 88 | 79.7 | 98.1 |
| CC[C@H](Nc1ncnc2[nH]cnc12)c1nc2cccc(F)c2c(=O)n1-c1ccccc1 | 95.7 | 95.9 | 95 | 108 | 94.3 | 95.1 | 89.7 | 98 | 104 | 86.8 | 86.7 | 105 |
| CC(C)Oc1ccc(-c2nn([C@@H](C)c3oc4ccc(F)cc4c(=O)c3-c3cccc(F)c3)c3ncnc(N)c23)cc1F [UMBRALISIB] | 92 | 99.5 | 96.4 | 104 | 99.7 | 96.9 | 88.7 | 101 | 99.5 | 84.3 | 78 | 102 |
